Tests used:
AMBEL (Ragweed, Common) = assay: Postemergence herbicidal evaluation; type: in vivo, Ambrosia artemisifolia; settings: postemergence
Outline: (§1)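 Young plants, roughly two weeks from seeding, receive the active ingredient as a sprayed dispersion (acetone/water 50/50, 0.5% TWEEN 20) at 40 psi. Doses span about 0.0156 to 0.500 kg/ha. A visual score from 0 to 9 compares treated with control plants four to five weeks on.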

[1] = system: GLXMAW (Soybean, Williams); assay: Postemergence herbicidal evaluation; type: in vivo, Glycine max, (L.) Merr. cv Williams; settings: postemergence
Outline: as §1

GALAP (Galium) [2] = assay: Postemergence herbicidal evaluation; type: in vivo, Galium aparine; settings: postemergence
Outline: as §1

[3] = system: CHEAL (Lambsquarters, Common); assay: Postemergence herbicidal evaluation; type: in vivo, Chenopodium album; settings: postemergence
Outline: as §1

ZEAMX (Corn, Field) = assay: Preemergence herbicidal evaluation; type: in vivo, Zea mays; settings: rated 4-5 weeks after treatment
Source text: (§2) Results of herbicide evaluation are expressed on a rating scale (0-9). The scale is based upon a visual observation of plant stand, vigor, malformation, size, chlorosis and overall plant appearance as compared with a control.
(§3) The preemergence herbicidal activity of the test compounds of the present invention is exemplified by the following tests in which the seeds of a variety of monocotyledonous and dicotyledonous plants are separately mixed with potting soil and planted on top of approximately one inch of soil in separate pint cups. After planting, the cups are sprayed with the selected aqueous acetone solution containing test compound in sufficient quantity to provide the equivalent of about 0.0156 to 0.500 kg per hectare of test compound per cup. The treated cups are then placed on greenhouse benches, watered and cared for in accordance with conventional greenhouse procedures. From four to five weeks after treatment, the tests are terminated and each cup is examined and rated according to the rating system provided in Example 37.
(§4) The compounds evaluated are reported by compound number given in Example 37.

GALAP (Galium) [4] = assay: Preemergence herbicidal evaluation; type: in vivo, Galium aparine; settings: rated 4-5 weeks after treatment
Outline: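 Greenhouse preemergence test: seed-soil mix sown on ~1 inch soil; aqueous acetone spray at equivalent of ~0.0156–0.500 kg/ha; greenhouse-held and watered; scored 0–9 visually at 4–5 weeks.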

ORYSAT (Rice, Tebonnet) = assay: Postemergence herbicidal evaluation; type: in vivo, Oryza sativa, (L.) Tebonnet; settings: postemergence
Outline: as §1

CYPIR (Rice Flatsedge) = assay: Preemergence weed control under flooded paddy conditions; type: in vivo, Cyperus iria; settings: rated 3-4 weeks after treatment
Outline: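 Silt loam, seeds in top 0.5 cm; flood held 1.5-3 cm; test cpd as acetone/water 50/50 into flood water, ~0.0313-0.500 kg/ha a.i.; greenhouse 3-4 wk; visual 0-9 score vs control.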

SETVI (Foxtail, Green) = assay: Postemergence herbicidal evaluation; type: in vivo, Setaria viridis; settings: postemergence
Outline: as §1

CASOB (Sicklepod) [5] = assay: Postemergence herbicidal evaluation; type: in vivo, Cassia obtusifolia; settings: postemergence
Outline: as §1

CASOB (Sicklepod) [6] = assay: Preemergence herbicidal evaluation; type: in vivo, Cassia obtusifolia; settings: rated 4-5 weeks after treatment
Source text: as §2, §3, §4

ECHCG (Barnyardgrass) = assay: Postemergence herbicidal evaluation; type: in vivo, Echinochloa crus-galli; settings: postemergence
Outline: as §1

[7] = system: SAGPY (Arrowhead (Pygmaea)); assay: Preemergence weed control under flooded paddy conditions; type: in vivo, Sagittaria pygmaea; settings: rated 3-4 weeks after treatment
Outline: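 Values are visual 0-9 scores against a control for a preemergence application into paddy flood water at about 0.0313 to 0.500 kg/ha. Greenhouse duration was three to four weeks.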

CCOC(=O)CN1C(=O)C(CC(=O)O)SC1=Nc1cc(N2C(=O)CC(C(F)(F)F)CC2=O)c(F)cc1Cl (centres unmarked) [Compound 170, 2-{{2-Chloro-5-[2,6-dioxo-4-(trifluoromethyl)-piperidino]-4-fluorophenyl}imino}-4-oxo-3,5-thiazolidinediacetic acid, 3-ethyl ester]
Herbicidal rating AMBEL (AMBEL (Ragweed, Common); rate 0.0156 kg/ha): 9.0
Herbicidal rating AMBEL (AMBEL (Ragweed, Common); rate 0.0313 kg/ha): 9.0
Herbicidal rating AMBEL (AMBEL (Ragweed, Common); rate 0.0625 kg/ha): 9.0
Herbicidal rating GLXMAW ([1]; rate 0.0156 kg/ha): 7.5
Herbicidal rating GLXMAW ([1]; rate 0.0313 kg/ha): 7.5
Herbicidal rating GLXMAW ([1]; rate 0.0625 kg/ha): 7.5
Herbicidal rating GALAP (GALAP (Galium) [2]; rate 0.0156 kg/ha): 0.0
Herbicidal rating GALAP (GALAP (Galium) [2]; rate 0.0313 kg/ha): 3.0
Herbicidal rating GALAP (GALAP (Galium) [2]; rate 0.0625 kg/ha): 4.0
Herbicidal rating CHEAL ([3]; rate 0.0156 kg/ha): 4.0
Herbicidal rating CHEAL ([3]; rate 0.0313 kg/ha): 9.0
Herbicidal rating CHEAL ([3]; rate 0.0625 kg/ha): 9.0
Preemergence herbicidal rating ZEAMX (ZEAMX (Corn, Field); 0.0156 kg/ha): 5.0
Preemergence herbicidal rating ZEAMX (ZEAMX (Corn, Field); 0.0313 kg/ha): 7.0
Preemergence herbicidal rating ZEAMX (ZEAMX (Corn, Field); 0.0625 kg/ha): 8.0
Preemergence herbicidal rating ZEAMX (ZEAMX (Corn, Field); 0.1250 kg/ha): 9.0
Preemergence herbicidal rating ZEAMX (ZEAMX (Corn, Field); 0.2500 kg/ha): 9.0
Preemergence herbicidal rating GALAP (GALAP (Galium) [4]; 0.0156 kg/ha): 0.0
Preemergence herbicidal rating GALAP (GALAP (Galium) [4]; 0.0313 kg/ha): 0.0
Preemergence herbicidal rating GALAP (GALAP (Galium) [4]; 0.0625 kg/ha): 0.0
Preemergence herbicidal rating GALAP (GALAP (Galium) [4]; 0.1250 kg/ha): 0.0
Preemergence herbicidal rating GALAP (GALAP (Galium) [4]; 0.2500 kg/ha): 3.0
Herbicidal rating ORYSAT (ORYSAT (Rice, Tebonnet); rate 0.0156 kg/ha): 2.0
Herbicidal rating ORYSAT (ORYSAT (Rice, Tebonnet); rate 0.0313 kg/ha): 2.0
Herbicidal rating ORYSAT (ORYSAT (Rice, Tebonnet); rate 0.0625 kg/ha): 2.5
herbicidal effect rating, CYPIR (CYPIR (Rice Flatsedge); 0.0313 kg/ha): 9.0
herbicidal effect rating, CYPIR (CYPIR (Rice Flatsedge); 0.0625 kg/ha): 9.0
herbicidal effect rating, CYPIR (CYPIR (Rice Flatsedge); 0.1250 kg/ha): 9.0
herbicidal effect rating, CYPIR (CYPIR (Rice Flatsedge); 0.2500 kg/ha): 9.0
Herbicidal rating SETVI (SETVI (Foxtail, Green); rate 0.0156 kg/ha): 6.0
Herbicidal rating SETVI (SETVI (Foxtail, Green); rate 0.0313 kg/ha): 9.0
Herbicidal rating SETVI (SETVI (Foxtail, Green); rate 0.0625 kg/ha): 9.0
Herbicidal rating CASOB (CASOB (Sicklepod) [5]; rate 0.0156 kg/ha): 0.0
Herbicidal rating CASOB (CASOB (Sicklepod) [5]; rate 0.0313 kg/ha): 0.0
Herbicidal rating CASOB (CASOB (Sicklepod) [5]; rate 0.0625 kg/ha): 1.0
Preemergence herbicidal rating CASOB (CASOB (Sicklepod) [6]; 0.0156 kg/ha): 0.0
Preemergence herbicidal rating CASOB (CASOB (Sicklepod) [6]; 0.0313 kg/ha): 0.0
Preemergence herbicidal rating CASOB (CASOB (Sicklepod) [6]; 0.0625 kg/ha): 0.0
Preemergence herbicidal rating CASOB (CASOB (Sicklepod) [6]; 0.1250 kg/ha): 3.0
Preemergence herbicidal rating CASOB (CASOB (Sicklepod) [6]; 0.2500 kg/ha): 3.0
Herbicidal rating ECHCG (ECHCG (Barnyardgrass); rate 0.0156 kg/ha): 1.0
Herbicidal rating ECHCG (ECHCG (Barnyardgrass); rate 0.0313 kg/ha): 1.0
Herbicidal rating ECHCG (ECHCG (Barnyardgrass); rate 0.0625 kg/ha): 1.0
herbicidal effect rating, SAGPY ([7]; 0.0313 kg/ha): 5.0
herbicidal effect rating, SAGPY ([7]; 0.0625 kg/ha): 9.0
herbicidal effect rating, SAGPY ([7]; 0.1250 kg/ha): 8.0
herbicidal effect rating, SAGPY ([7]; 0.2500 kg/ha): 9.0

From patent US20020137929A1, “1 - (3-heterocyclylphenyl) isothiourea, -isourea, -guanidine and -amidine herbicidal agents” (Intellectual Property Department, BASF Aktiengesellschaft, priority 1998, published 2002)
